# Experiments:
# [1] = test system: MCF7; experiment: Sulforhodamine B (SRB) cell growth inhibition assay; type: cell-based; settings: Homo sapiens, 48 h treatment
# Experimental: (§1) The following human tumor cell lines were used and maintained in RPMI-1640 medium with UltraGlutamine I and 25 mM Hepes (Lonza, Basel, Switzerland), supplemented with 5% FBS (Biowest): NCI-H460 (non-small cell lung adenocarcinoma), AGS (gastric adenocarcinoma) and MCF-7 (breast adenocarcinoma). The HFF-1 cell line (human foreskin fibroblasts) was cultured in DMEM High Glucose with L-Glutamine supplemented with 15% FBS. All cell lines were routinely maintained at 37 °C in a humidified incubator with 5% CO2. Cell number and viability were determined with the trypan blue exclusion assay. All the experiments were performed with exponentially growing cells presenting more than 90% cell viability.
# (§2) The growth inhibitory effect of the compounds was assessed using the Sulforhodamine B (SRB) assay as previously described. Briefly, cells were plated into 96-well plates (5000 cells/well for MCF-7 and NCI-H460 cells and 7500 cells/well for AGS cells) and incubated for 24 h to adhere. Serial dilutions of the different compounds (ranging from 0 to 150 μM or from 0 to 50 μM) were then added to the cells. Cells were further incubated for 48 h. Following this period (or at the time the compound is added, T0), plates were fixed with 10% ice-cold trichloroacetic acid. Following staining with 0.4% SRB, plates were washed with 1% acetic acid and the bound dye solubilized with 10 mM Tris-Base. […] For the HFF-1 cell line, cells (15,000 cells/well) were plated into 96-well plates, allowed to adhere for 24 h and treated with the GI50 concentration of each compound for seven days. After this period, the SRB assay was carried out as described above. The effect of the maximum concentration of vehicle (solvent) of the compounds (H2O: 0.31% for compound 8 and 0.19% for compound 13) was also analyzed in each assay.
# [2] = test system: AGS; experiment: as above; type: cell-based; settings: Homo sapiens, 48 h treatment
# Experimental: as §1, §2
# [3] = test system: NCI-H460; experiment: as above; type: cell-based; settings: Homo sapiens, 48 h treatment
# Experimental: as §1, §2
# [4] = test system: A431 squamous cell carcinoma xenografts; experiment: Tumor growth of xenografted mouse model; type: in vivo, nude mice
# Experimental: Experiments were carried out using female athymic Swiss nude mice, 8–10 weeks old (Charles River, Calco, Italy). Mice were maintained in laminar flow rooms keeping temperature and humidity constant. Mice had free access to food and water. Experiments were approved by the Ethics Committee for Animal Experimentation of the Istituto Nazionale Tumori of Milan according to institutional guidelines. Epidermoid carcinoma cells, A-431 suspended in culture media were subcutaneously injected on the back of mice. When tumors were just palpable, the mice were randomly divided into two groups: control and compound-treated. Each group was constituted by 8 mice. Saline (0.9% NaCl) or compound solution (5 or 10 mg/kg, respectively) was i.p. administered daily during 3 weeks, to both groups. Tumor volume was assessed using calipers and determined according to the formula (d)^2xD/2.
# [5] = test system: NCI-H460; experiment: Cell-counting assay, 72-h drug exposure; type: cell-based; settings: Homo sapiens, read-out: Cell Growth Inhibitory Activity NCI-H460 IC50 72 h
# Description: (§3) For the cytotoxic activity studies and determination of GI50 concentrations in three different tumor cell lines, the cell culture conditions are described in Section 3.5. For the studies on the effect on % viable cells, cell cycle, cellular proliferation, and apoptosis, culture conditions are described in Section 3.6.1. For the remaining studies, the epithelial carcinoma cell line A431 and the non-small cell lung carcinoma cell line NCI-H460 were routinely grown in RPMI 1640 (Lonza, Vierviers, Belgium), supplemented with 10% (v/v) heat-inactivated fetal bovine serum (FBS, GIBCO, Invitrogen, Paisley, UK). The human peritoneal mesothelioma cell line STO was kindly provided by Dr. N. Zaffaroni (IRCCS Istituto Nazionale Tumori, Milan, Italy) and grown in 50/50 DMEM-Ham’s F12 medium (Lonza, Vierviers, Belgium), supplemented with 10% (v/v) heat-inactivated foetal bovine serum and 2 mM L-glutamine (L-Gln). All cell lines were maintained at 37 °C in a 5%/95% CO2/air atmosphere. All the compounds tested were freshly prepared by dissolving powder in dimethylsulfoxide (DMSO) (BDH Prolabo, Milan, Italy) and following dilution in culture medium. Cells were incubated with drugs for 48 h or 72 h (unless otherwise stated) at 37 °C in culture medium supplemented with 10% (v/v) heat-inactivated FBS; drug concentrations used for each assay and duration of treatments are reported in Legends to Figures.
# Cellular sensitivity to drugs was evaluated by a cell-counting assay after 72-h drug exposure. Cells in the logarithmic phase of growth were seeded in duplicate into 6-well plates. Twenty-four hours after seeding, the drug was added to the medium. Cells were harvested 72 h after drug exposure and counted with a cell counter.
# [6] = test system: HSP90 client proteins in A431 cells; experiment: HSP90 client protein levels by Western blot; type: cell-based, human; settings: 24 h
# Description: as §3
# (§4) Total cell lysates were prepared as described previously. Primary antibodies used in this study are: anti-Raf-1 and anti-CDK4 (Santa Cruz Biotechnology Inc., Santa Cruz, CA, USA), anti-Survivin (Abcam, Cambridge, UK), anti-Akt (Transduction Laboratories, Lexington, KY, USA), and anti-Actin Sigma Chemical Co., St. Louis, MO, USA).
# [7] = test system: HSP90 client proteins in STO cells; experiment: HSP90 client protein levels by Western blot; type: cell-based, human; settings: 24 h
# Description: as §3, §4
# [8] = target: T1, HSP90 (Homo sapiens, UniProt P07900); experiment: HSP90 binding, fluorescence polarization with GM-FITC; settings: displacement of GM-FITC 5 nM, 30 nM HSP90, 4 °C, 4 h; read-out: Binding HSP90 (FP) IC50
# T1 construct: purchased Stressgen SPP-776
# Experimental: GM-FITC Geldanamycin-fluorescein-5-isothiocyanate (working concentration: 1–400 nM), supplied by Invivogen (06C23-MT, San Diego, CA, USA), was previously dissolved in DMSO to obtain 10 mM stock solutions and kept at −20 °C until use. […] The compounds were previously dissolved in DMSO to obtain stock solutions and kept at −20 °C. The day of experiment, the compounds were prepared by serial dilutions in assay buffer (HFB) containing 20 mM HEPES (K) pH 7.3, 50 mM KCl, 5 mM MgCl2, 20 mM Na2MoO4 and 0.01% NP40. Before each use, 0.1 mg/mL Bovine Gamma globulin and 2 mM DTT were freshly added. […] The plate was mixed on a shaker at 4 °C for 4 h, and the FP values in mP (millipolarization units) were recorded. […] Curve fitting was performed using Prism GraphPad software program (GraphPad software, Inc., San Diego, CA, USA).
structure (smiles),measurement,setting,value
"O=c1c2ccccc2oc2c[n+](Cc3ccccc3)ccc12.[Br-] [Compound 5, 2-Benzyl-10-oxo-10H-9-oxa-2-azonia-anthracene bromide]",GI50,[1],5.4 ± 0.6 µM
same,GI50,[2],6.9 ± 1.2 µM
same,GI50,[3],5.2 ± 1.2 µM
same,Inhibition of tumor growth vs control group,[4]; 5 mg/kg i.p. daily for three weeks,considerable inhibition of tumor growth
same,Inhibition of tumor growth vs control group,[4]; 10 mg/kg i.p. daily for three weeks,accentuated this difference to statistically significant values
same,Manifestations of toxicity (death and body weight loss),"[4]; 5 and 10 mg/kg i.p., three weeks",no evident manifestations of toxicity
same,IC50,[5],4.8 ± 0.1 µM
same,CDK4 protein level,[6]; 5.4 μM,almost complete downregulation
same,Survivin protein level,[6]; 5.4 μM,partial downregulation
same,CDK4 protein level,[7]; 2.7 μM,almost complete downregulation
same,Survivin protein level,[7]; 2.7 μM,partial downregulation
"O=c1c2ccccc2sc2c[n+](Cc3ccccc3)ccc12.[Br-] [Compound 8, 2-Benzyl-5-oxo-5H-thiochromeno[2,3-c]pyridin-2-ium bromide]",GI50,[1],3.2 ± 0.1 µM
same,GI50,[2],3.1 ± 0.3 µM
same,GI50,[3],3.2 ± 0.1 µM
same,IC50,[8],3.7 ± 0.03 µM
same,Akt protein level,[6]; 2.6 μM,partial downregulation
same,EGFR protein level,[6]; 2.6 μM,partial downregulation
same,RAF protein level,[6]; 2.6 μM,strong downregulation
same,Survivin protein level,"[6]; 2.6 μM, compared with STO cells",less marked
same,Survivin protein level,[7]; 2.6 μM,caused degradation

# From publication PMC6017909, “Synthesis and Evaluation of the Tumor Cell Growth Inhibitory Potential of New Putative HSP90 Inhibitors” (Molecules : A Journal of Synthetic Chemistry and Natural …, 2018)
